The NIST ThermoML archive (doi:10.1016/j.jct.2007.10.007)
Numbers after ± are expanded uncertainties. Blank lines part the entries; values can stand above or below the molecule they belong to.

Assay: mn = molality of the nth substance listed, in mol/kg
Details: 298.15 K, 101 kPa, Liquid

SMILES: CCCCn1cc[n+](C)c1.[Cl-] [1-butyl-3-methylimidazolium chloride] + O
mass density (m1 = 0.05281): 997.72 ± 0.51 kg/m3 | speed of sound (m1 = 0.05281): 1504.8 ± 1.5 m/s | mass density (m1 = 0.09783): 998.29 ± 0.51 kg/m3 | speed of sound (m1 = 0.09783): 1510.5 ± 1.5 m/s | mass density (m1 = 0.1433): 998.85 ± 0.51 kg/m3 | speed of sound (m1 = 0.1433): 1516.7 ± 1.5 m/s | mass density (m1 = 0.1998): 999.56 ± 0.5 kg/m3 | speed of sound (m1 = 0.1998): 1524.4 ± 1.5 m/s | mass density (m1 = 0.2471): 1000.15 ± 0.5 kg/m3 | speed of sound (m1 = 0.2471): 1530.2 ± 1.5 m/s | mass density (m1 = 0.2899): 1000.69 ± 0.51 kg/m3 | speed of sound (m1 = 0.2899): 1535.5 ± 1.5 m/s | mass density (m1 = 0.3173): 1001.04 ± 0.51 kg/m3 | speed of sound (m1 = 0.3173): 1539.1 ± 1.5 m/s | mass density (m1 = 0.4052): 1002.14 ± 0.52 kg/m3 | speed of sound (m1 = 0.4052): 1549.9 ± 1.5 m/s | mass density (m1 = 0.422): 1002.35 ± 0.52 kg/m3 | speed of sound (m1 = 0.422): 1551.9 ± 1.5 m/s | mass density (m1 = 0.4995): 1003.31 ± 0.52 kg/m3 | speed of sound (m1 = 0.4995): 1562.2 ± 1.5 m/s

SMILES: O [water] + Cl.c1c[nH]cn1
speed of sound (m2 = 0): 1497.6 ± 1.5 m/s

SMILES: O [water] + CCCCn1cc[n+](C)c1.[Cl-]
speed of sound (m2 = 0): 1497.6 ± 1.5 m/s

SMILES: O [water] + Cl.Cn1ccnc1
speed of sound (m2 = 0): 1497.6 ± 1.5 m/s

Next, values leading:

mass density (m1 = 0.04296): 998.24 ± 0.51 kg/m3 | speed of sound (m1 = 0.04296): 1500.1 ± 1.5 m/s | mass density (m1 = 0.1027): 999.89 ± 0.5 kg/m3 | speed of sound (m1 = 0.1027): 1503.8 ± 1.5 m/s | mass density (m1 = 0.153): 1001.26 ± 0.51 kg/m3 | speed of sound (m1 = 0.153): 1507 ± 1.5 m/s | mass density (m1 = 0.1976): 1002.47 ± 0.52 kg/m3 | speed of sound (m1 = 0.1976): 1509.7 ± 1.5 m/s | mass density (m1 = 0.2417): 1003.72 ± 0.53 kg/m3 | speed of sound (m1 = 0.2417): 1512.4 ± 1.5 m/s | mass density (m1 = 0.2914): 1004.65 ± 0.53 kg/m3 | speed of sound (m1 = 0.2914): 1515.8 ± 1.5 m/s | mass density (m1 = 0.34): 1006.45 ± 0.55 kg/m3 | speed of sound (m1 = 0.34): 1517.9 ± 1.5 m/s | mass density (m1 = 0.3893): 1007.62 ± 0.55 kg/m3 | speed of sound (m1 = 0.3893): 1521.2 ± 1.5 m/s | mass density (m1 = 0.4495): 1008.96 ± 0.56 kg/m3 | speed of sound (m1 = 0.4495): 1525.2 ± 1.5 m/s | mass density (m1 = 0.5003): 1010.31 ± 0.57 kg/m3 | speed of sound (m1 = 0.5003): 1527.9 ± 1.5 m/s
SMILES: Cl.c1c[nH]cn1 [imidazolium chloride] + O

mass density (m1 = 0.05234): 998.29 ± 0.51 kg/m3 | speed of sound (m1 = 0.05234): 1501.6 ± 1.5 m/s | mass density (m1 = 0.09548): 999.3 ± 0.51 kg/m3 | speed of sound (m1 = 0.09548): 1504.7 ± 1.5 m/s | mass density (m1 = 0.147): 1000.49 ± 0.5 kg/m3 | speed of sound (m1 = 0.147): 1508.5 ± 1.5 m/s | mass density (m1 = 0.1998): 1001.69 ± 0.51 kg/m3 | speed of sound (m1 = 0.1998): 1512.5 ± 1.5 m/s | mass density (m1 = 0.2472): 1002.77 ± 0.52 kg/m3 | speed of sound (m1 = 0.2472): 1516 ± 1.5 m/s | mass density (m1 = 0.3011): 1003.97 ± 0.53 kg/m3 | speed of sound (m1 = 0.3011): 1519.9 ± 1.5 m/s | mass density (m1 = 0.3555): 1005.18 ± 0.54 kg/m3 | speed of sound (m1 = 0.3555): 1523.9 ± 1.5 m/s | mass density (m1 = 0.3994): 1006.13 ± 0.54 kg/m3 | speed of sound (m1 = 0.3994): 1526.3 ± 1.5 m/s | mass density (m1 = 0.4551): 1007.35 ± 0.55 kg/m3 | speed of sound (m1 = 0.4551): 1530.5 ± 1.5 m/s | mass density (m1 = 0.5139): 1008.62 ± 0.56 kg/m3 | speed of sound (m1 = 0.5139): 1534.6 ± 1.5 m/s
SMILES: Cl.Cn1ccnc1 [1-methylimidazolium chloride] + O
